# Test system: A375 multi-cell spheroids with HUVEC/MSC, viability
# Assay: Anticancer human tumor A375 cell line growth inhibition [GQUAD];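 further: spheroids exposed to compounds for seven days before readout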
# Details: for IC50: curve of first compound; for viability, T/C: stronger effect = lower value
# Procedure, shortened: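 Tumor cells were grown as complex spheroids with HUVEC endothelial cells and mesenchymal stem cells as stroma. G-quadruplex stabilizers were combined with targeted agents over half-log dilutions from near the clinical Cmax, or from 10 microM.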
# [1] = second compound 0.0316 µM, first compound 0.0316 µM
# [2] = second compound 0.0316 µM, first compound 0.1 µM
# [3] = second compound 0.0316 µM, first compound 0.316 µM
# [4] = second compound 0.0316 µM, first compound 1 µM
# [5] = second compound 0.0316 µM, first compound 3.16 µM
# [6] = second compound 0.0316 µM, first compound 10 µM
# [7] = second compound 0.1 µM, first compound 0.0316 µM
# [8] = second compound 0.1 µM, first compound 0.1 µM
# [9] = second compound 0.1 µM, first compound 0.316 µM
# [10] = second compound 0.1 µM, first compound 1 µM
# [11] = second compound 0.1 µM, first compound 3.16 µM
# [12] = second compound 0.1 µM, first compound 10 µM
# [13] = second compound 0.316 µM, first compound 0.0316 µM
# [14] = second compound 0.316 µM, first compound 0.1 µM
# [15] = second compound 0.316 µM, first compound 0.316 µM
# [16] = second compound 0.316 µM, first compound 1 µM
# [17] = second compound 0.316 µM, first compound 3.16 µM
# [18] = second compound 0.316 µM, first compound 10 µM
# [19] = second compound 1 µM, first compound 0.0316 µM
# [20] = second compound 1 µM, first compound 0.1 µM
# [21] = second compound 1 µM, first compound 0.316 µM
# [22] = second compound 1 µM, first compound 1 µM
# [23] = second compound 1 µM, first compound 3.16 µM
# [24] = second compound 1 µM, first compound 10 µM
# [25] = second compound 3.16 µM, first compound 0.0316 µM
# [26] = second compound 3.16 µM, first compound 0.1 µM
# [27] = second compound 3.16 µM, first compound 0.316 µM
# [28] = second compound 3.16 µM, first compound 1 µM
# [29] = second compound 3.16 µM, first compound 3.16 µM
# [30] = second compound 3.16 µM, first compound 10 µM
# [31] = second compound 10 µM, first compound 0.0316 µM
# [32] = second compound 10 µM, first compound 0.1 µM
# [33] = second compound 10 µM, first compound 0.316 µM
# [34] = second compound 10 µM, first compound 1 µM
# [35] = second compound 10 µM, first compound 3.16 µM
# [36] = second compound 10 µM, first compound 10 µM
smiles,measurement,setting,value
COc1cc(C2c3cc4c(cc3C(OC3OC5COC(C)OC5C(O)C3O)C3COC(=O)C23)OCO4)cc(OC)c1O (stereo unspecified) + CN(C)c1ccc(Nc2c3ccc(NC(=O)CCN4CCCC4)cc3nc3cc(NC(=O)CCN4CCCC4)ccc23)cc1,IC50,second compound 0.0316 µM,1020 nM
same,IC50,second compound 0.1 µM,966 nM
same,IC50,second compound 0.316 µM,1200 nM
same,IC50,second compound 1 µM,1410 nM
same,IC50,second compound 3.16 µM,1580 nM
same,IC50,second compound 10 µM,1460 nM
same,"viability, T/C",[1],99%
same,"viability, T/C",[2],105%
same,"viability, T/C",[3],75.3%
same,"viability, T/C",[4],52.5%
same,"viability, T/C",[5],27.5%
same,"viability, T/C",[6],19%
same,"viability, T/C",[7],109%
same,"viability, T/C",[8],103%
same,"viability, T/C",[9],71.6%
same,"viability, T/C",[10],50.2%
same,"viability, T/C",[11],31.1%
same,"viability, T/C",[12],18%
same,"viability, T/C",[13],107%
same,"viability, T/C",[14],107%
same,"viability, T/C",[15],74.2%
same,"viability, T/C",[16],55.1%
same,"viability, T/C",[17],33%
same,"viability, T/C",[18],18.2%
same,"viability, T/C",[19],117%
same,"viability, T/C",[20],105%
same,"viability, T/C",[21],86.3%
same,"viability, T/C",[22],58.6%
same,"viability, T/C",[23],30.9%
same,"viability, T/C",[24],18.1%
same,"viability, T/C",[25],103%
same,"viability, T/C",[26],103%
same,"viability, T/C",[27],84.5%
same,"viability, T/C",[28],60.1%
same,"viability, T/C",[29],35.2%
same,"viability, T/C",[30],18.8%
same,"viability, T/C",[31],105%
same,"viability, T/C",[32],99.9%
same,"viability, T/C",[33],80.6%
same,"viability, T/C",[34],56.9%
same,"viability, T/C",[35],35.9%
same,"viability, T/C",[36],20.1%
COc1cccc2c1C(=O)c1c(O)c3c(c(O)c1C2=O)CC(O)(C(=O)CO)CC3OC1CC(N)C(O)C(C)O1 (stereo unspecified) + CN(C)c1ccc(Nc2c3ccc(NC(=O)CCN4CCCC4)cc3nc3cc(NC(=O)CCN4CCCC4)ccc23)cc1,IC50,second compound 0.0316 µM,196 nM
same,IC50,second compound 0.1 µM,214 nM
same,IC50,second compound 0.316 µM,217 nM
same,IC50,second compound 1 µM,222 nM
same,IC50,second compound 3.16 µM,229 nM
same,IC50,second compound 10 µM,233 nM
same,"viability, T/C",[1],107%
same,"viability, T/C",[2],70.2%
same,"viability, T/C",[3],34%
same,"viability, T/C",[4],18.7%
same,"viability, T/C",[5],2.21%
same,"viability, T/C",[6],0.12%
same,"viability, T/C",[7],105%
same,"viability, T/C",[8],75.2%
same,"viability, T/C",[9],34.6%
same,"viability, T/C",[10],18.5%
same,"viability, T/C",[11],2.59%
same,"viability, T/C",[12],0.11%
same,"viability, T/C",[13],110%
same,"viability, T/C",[14],79.7%
same,"viability, T/C",[15],32.2%
same,"viability, T/C",[16],18.3%
same,"viability, T/C",[17],2.01%
same,"viability, T/C",[18],0.1%
same,"viability, T/C",[19],107%
same,"viability, T/C",[20],80.7%
same,"viability, T/C",[21],33.2%
same,"viability, T/C",[22],17.7%
same,"viability, T/C",[23],2.55%
same,"viability, T/C",[24],0.13%
same,"viability, T/C",[25],112%
same,"viability, T/C",[26],82%
same,"viability, T/C",[27],34.2%
same,"viability, T/C",[28],18.6%
same,"viability, T/C",[29],2.88%
same,"viability, T/C",[30],0.15%
same,"viability, T/C",[31],103%
same,"viability, T/C",[32],77.5%
same,"viability, T/C",[33],38.3%
same,"viability, T/C",[34],17.9%
same,"viability, T/C",[35],4.36%
same,"viability, T/C",[36],0.25%
Nc1ccn(C2OC(CO)C(O)C2(F)F)c(=O)n1 (stereo unspecified) + CN(C)c1ccc(Nc2c3ccc(NC(=O)CCN4CCCC4)cc3nc3cc(NC(=O)CCN4CCCC4)ccc23)cc1,IC50,second compound 0.0316 µM,< 31.6 nM
same,IC50,second compound 0.1 µM,< 31.6 nM
same,IC50,second compound 0.316 µM,< 31.6 nM
same,IC50,second compound 1 µM,< 31.6 nM
same,IC50,second compound 3.16 µM,< 31.6 nM
same,IC50,second compound 10 µM,< 31.6 nM
same,"viability, T/C",[1],13.1%
same,"viability, T/C",[2],5.96%
same,"viability, T/C",[3],5.05%
same,"viability, T/C",[4],6.71%
same,"viability, T/C",[5],7.93%
same,"viability, T/C",[6],7.84%
same,"viability, T/C",[7],12.4%
same,"viability, T/C",[8],6.04%
same,"viability, T/C",[9],6.62%
same,"viability, T/C",[10],6.98%
same,"viability, T/C",[11],7.52%
same,"viability, T/C",[12],8.82%
same,"viability, T/C",[13],13.4%
same,"viability, T/C",[14],5.96%
same,"viability, T/C",[15],6.92%
same,"viability, T/C",[16],7.41%
same,"viability, T/C",[17],8.24%
same,"viability, T/C",[18],9.65%
same,"viability, T/C",[19],11%
same,"viability, T/C",[20],6.99%
same,"viability, T/C",[21],6.31%
same,"viability, T/C",[22],6.93%
same,"viability, T/C",[23],7.59%
same,"viability, T/C",[24],10.1%
same,"viability, T/C",[25],13.2%
same,"viability, T/C",[26],6.34%
same,"viability, T/C",[27],6.54%
same,"viability, T/C",[28],7.74%
same,"viability, T/C",[29],8.41%
same,"viability, T/C",[30],9.18%
same,"viability, T/C",[31],11.4%
same,"viability, T/C",[32],5.96%
same,"viability, T/C",[33],6.62%
same,"viability, T/C",[34],6.28%
same,"viability, T/C",[35],9.34%
same,"viability, T/C",[36],7.97%

# Source: PubChem BioAssay AID2060485 (Molecular Pharmacology Branch, DTP, NCI, 2025)
